Measured values: paper PMC6353796, “Thermostable Branched-Chain Amino Acid Transaminases From the Archaea Geoglobus acetivorans and Archaeoglobus fulgidus: Biochemical and Structural Characterization” (Frontiers in Bioengineering and Biotechnology, 2019)
Values belong to the molecule of their own block, whether it stands above or below them.

Experiments:
Type in all cases: binding
AF0933 [1] = target: T1, AF0933 (Archaeoglobus fulgidus, UniProt O29329); assay: X-ray crystal structure, […] Å, co-crystallization; settings: 5 mM gabaculine; covalent adduct with PLP, irreversible; partial occupancy, absent in subunit F
T1 construct: gene ilvE; His-tagged (pLATE51, E. coli Rosetta (DE3)-pLysS); homohexamer in solution; catalytic Lys150
T1 sequence (O29329 1-290): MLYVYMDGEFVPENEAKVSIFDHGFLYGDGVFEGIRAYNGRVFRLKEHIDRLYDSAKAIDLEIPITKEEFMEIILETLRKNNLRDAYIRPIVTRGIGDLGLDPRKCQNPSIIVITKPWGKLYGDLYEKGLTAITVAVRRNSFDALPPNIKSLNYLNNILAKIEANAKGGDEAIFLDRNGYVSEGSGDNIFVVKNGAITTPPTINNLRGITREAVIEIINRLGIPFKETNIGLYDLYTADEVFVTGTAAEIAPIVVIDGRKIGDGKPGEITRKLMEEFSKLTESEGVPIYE

GEO1900 [2] = target: T2, GEO1900 (Geoglobus acetivorans, UniProt A0A0A7GJ30); assay: X-ray crystal structure, […] Å; settings: covalent internal aldimine with Lys152
T2 construct: gene ilvE; mainly homodimer in solution, hexamer in crystal; catalytic Lys152
T2 sequence (A0A0A7GJ30 entry or part of it): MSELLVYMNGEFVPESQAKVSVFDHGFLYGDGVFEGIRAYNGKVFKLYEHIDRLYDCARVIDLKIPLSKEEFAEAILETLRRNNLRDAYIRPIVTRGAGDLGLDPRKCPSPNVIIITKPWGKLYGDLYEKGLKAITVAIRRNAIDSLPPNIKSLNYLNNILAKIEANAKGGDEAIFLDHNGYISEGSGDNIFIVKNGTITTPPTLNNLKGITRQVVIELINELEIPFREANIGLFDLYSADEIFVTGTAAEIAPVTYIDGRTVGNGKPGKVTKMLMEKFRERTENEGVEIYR

AF0933 [3] = target: T1, AF0933; assay: X-ray crystal structure, […] Å; settings: covalent internal aldimine with Lys150
GEO1900 [4] = target: T2, GEO1900; assay: X-ray crystal structure, […] Å, soak; settings: 50 mM AKG soak; unproductive complex with holoenzyme; active site of subunit A only

Structure (SMILES): N[C@@H]1C=CC=C(C(=O)O)C1 [gabaculine]
X-ray crystal structure, 2.0 Å, co-crystallization (AF0933 [1]): AF0933 complexed with gabaculine 5MR0

Structure (SMILES): Cc1ncc(COP(=O)(O)O)c(C=O)c1O [pyridoxal 5′-phosphate]
X-ray crystal structure, 1.9 Å (GEO1900 [2]): A PLP molecule is covalently bound to the catalytic Lys152 in the GEO1900 active site | X-ray crystal structure, 2.1 Å (AF0933 [3]): A PLP molecule is covalently bound to the catalytic Lys152 in the GEO1900 active site (Lys150

X-ray crystal structure, 2.2 Å, soak (GEO1900 [4]): GEO1900 complexed with AKG 5E25
Structure (SMILES): O=C(O)CCC(=O)C(=O)O [α-ketoglutarate]
